# According to patent US10179782B2, “Substituted sulfonamide compounds” (Genentech, Inc., priority 2016, dated 2019):
# Target: T1, human TRPA1 (Homo sapiens, UniProt O75762)
# T1 construct: expressed in transfected cells; host or cells: CHO cells
# Assay: TRPA1 FLIPR Tetra calcium influx assay in CHO cells (block of cinnamaldehyde-induced calcium influx)
# Assay type: cell-based
# Conditions: Table 2; CHO cells expressing TRPA1; agonist cinnamaldehyde 75 uM; 20 min compound incubation; Hill coefficient fixed to 1.5; read-out: hTRPA1 CHO Ca2+ AUC EVO (IC50)
# Experimental: IC50s (effective concentration) of compounds on the human and rat TRPA1 channels were determined using a FLIPR Tetra instrument. CHO cells expressing TRPA1 were plated into 384-well plates, incubated overnight at 37 C, and loaded with BD calcium indicator dye for 1 hr at 37° C. followed by 15 minutes at room temperature. The assay buffer was Hank's Balanced Salt Solution (HBSS) containing 20 mM HEPES (pH readjusted to 7.4) along with 0.02% BSA.
# Following dye load and plate cool down, compounds were added to the cells using FLIPR Tetra. Plates were then incubated with compounds for 20 minutes at room temperature prior to adding agonist. Following this incubation, ˜EC80 concentration of cinnamaldehyde (75 uM for human TRPA1 and 45 uM for rat TRPA1) was added to active the channels and block of cinnamaldehyde induced calcium influx was measured.
# IC50s were fit with a standard Hill function, keeping the Hill coefficient (n) fixed to 1.5. Fixing the Hill coefficient will generally reduce variability of the IC50 determination. The IC50s were individually examined to make sure the MIN and MAX points were set correctly prior to validation of the results.
# T1 sequence (O75762 whole entry): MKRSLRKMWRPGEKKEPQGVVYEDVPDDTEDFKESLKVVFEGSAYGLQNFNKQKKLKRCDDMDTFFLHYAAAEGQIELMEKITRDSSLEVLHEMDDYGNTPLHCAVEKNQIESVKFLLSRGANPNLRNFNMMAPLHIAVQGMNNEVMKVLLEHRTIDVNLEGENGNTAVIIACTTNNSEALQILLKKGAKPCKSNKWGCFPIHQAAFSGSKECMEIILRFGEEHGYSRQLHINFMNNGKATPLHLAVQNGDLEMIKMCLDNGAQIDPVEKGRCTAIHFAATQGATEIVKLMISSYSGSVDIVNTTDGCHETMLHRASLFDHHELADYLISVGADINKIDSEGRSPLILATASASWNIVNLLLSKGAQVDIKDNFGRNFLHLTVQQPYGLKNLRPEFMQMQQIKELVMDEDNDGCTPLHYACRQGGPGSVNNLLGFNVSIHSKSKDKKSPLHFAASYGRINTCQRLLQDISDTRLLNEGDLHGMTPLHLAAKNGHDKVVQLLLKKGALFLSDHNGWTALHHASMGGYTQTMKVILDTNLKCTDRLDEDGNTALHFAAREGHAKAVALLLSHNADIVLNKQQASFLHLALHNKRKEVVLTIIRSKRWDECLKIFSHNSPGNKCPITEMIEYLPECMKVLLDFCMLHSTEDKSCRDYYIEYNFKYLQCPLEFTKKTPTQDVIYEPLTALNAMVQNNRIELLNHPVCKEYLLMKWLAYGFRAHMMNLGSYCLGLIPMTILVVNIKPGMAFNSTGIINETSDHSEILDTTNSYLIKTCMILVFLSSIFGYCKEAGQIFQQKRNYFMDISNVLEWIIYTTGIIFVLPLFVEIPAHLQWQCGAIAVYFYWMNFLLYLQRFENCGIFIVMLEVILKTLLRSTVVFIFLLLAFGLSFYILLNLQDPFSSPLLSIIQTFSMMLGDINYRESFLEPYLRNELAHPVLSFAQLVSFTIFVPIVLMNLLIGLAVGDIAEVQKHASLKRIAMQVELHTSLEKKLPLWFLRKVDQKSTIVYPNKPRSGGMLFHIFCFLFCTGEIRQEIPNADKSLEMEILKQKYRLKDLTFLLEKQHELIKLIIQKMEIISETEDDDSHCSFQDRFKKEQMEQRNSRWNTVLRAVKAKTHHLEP
row,SMILES,IC50 [nM]
1,"O=C(NCc1ccnc(-c2cnc(C(F)(F)F)nc2)c1)[C@@H]1C[C@@H]2C[C@@H]2N1S(=O)(=O)c1ccc(F)cc1 [Example 13, (1S,3S,5S)-2-(4-fluorophenyl)sulfonyl-N-[[2-[2-(trifluoromethyl)pyrimidin-5-yl]-4-pyridyl]methyl]-2-azabicyclo[3.1.0]hexane-3-carboxamide]",23
2,"O=C(NCc1cc(-c2cnc(C(F)(F)F)nc2)ncn1)[C@@H]1C[C@@H]2C[C@@H]2N1S(=O)(=O)c1ccc(F)cc1 [Example 18, (1S,3S,5S)-2-(4-fluorophenyl)sulfonyl-N-[[6-[2-(trifluoromethyl)pyrimidin-5-yl]pyrimidin-4-yl]methyl]-2-azabicyclo[3.1.0]hexane-3-carboxamide]",29.8
3,"C[C@H]1CC[C@@H](C(=O)NCc2cc(-c3cnc(C(F)(F)F)nc3)ncn2)N1S(=O)(=O)c1ccc(F)cc1 [Example 19, (2S,5S)-1-(4-fluorophenyl)sulfonyl-5-methyl-N-[[6-[2-(trifluoromethyl)pyrimidin-5-yl]pyrimidin-4-yl]methyl]pyrrolidine-2-carboxamide]",5.22
4,"CC[C@H]1CC[C@@H](C(=O)NCc2cc(-c3cnc(C(F)(F)F)nc3)ncn2)N1S(=O)(=O)c1ccc(F)cc1 [Example 20, (2S,5S)-5-ethyl-1-(4-fluorophenyl)sulfonyl-N-[[6-[2-(trifluoromethyl)pyrimidin-5-yl]pyrimidin-4-yl]methyl]pyrrolidine-2-carboxamide]",10.9

# Stronger by IC50, values ahead:
row,IC50 [nM],SMILES
1,3.17,"C[C@H]1CC[C@@H](C(=O)NCc2cc(-c3cnc(C(F)(F)F)nc3)nc(-c3cnc(C(F)(F)F)nc3)c2)N1S(=O)(=O)c1ccc(F)cc1 [Example 11, (2S,5S)-N-[[2,6-bis[2-(trifluoromethyl)pyrimidin-5-yl]-4-pyridyl]methyl]-1-(4-fluorophenyl)sulfonyl-5-methyl-pyrrolidine-2-carboxamide]"
2,2.94,"C[C@H]1[C@H](F)C[C@@H](C(=O)NCc2cc(-c3cnc(C(F)(F)F)nc3)ncc2Cl)N1S(=O)(=O)c1ccc(F)cc1 [Example 12, (2S,4R,5S)-N-[[5-chloro-2-[2-(trifluoromethyl)pyrimidin-5-yl]-4-pyridyl]methyl]-4-fluoro-1-(4-fluorophenyl)sulfonyl-5-methyl-pyrrolidine-2-carboxamide]"
3,2.14,"C[C@H]1[C@H](F)C[C@@H](C(=O)NCc2cc(-c3cnc(C(F)(F)F)nc3)ccc2F)N1S(=O)(=O)c1ccc(F)cc1 [Example 14, (2S,4R,5S)-4-fluoro-1-(4-fluorophenyl)sulfonyl-N-[[2-fluoro-5-[2-(trifluoromethyl)pyrimidin-5-yl]phenyl]methyl]-5-methyl-pyrrolidine-2-carboxamide]"
4,0.6,"O=C(NCc1cc(-c2cnc(C(F)(F)F)nc2)ncc1F)[C@@H]1C[C@@H]2C[C@@H]2N1S(=O)(=O)c1ccc(F)cc1 [Example 15, (1S,3S,5S)-2-(4-fluorophenyl)sulfonyl-N-[[5-fluoro-2-[2-(trifluoromethyl)pyrimidin-5-yl]-4-pyridyl]methyl]-2-azabicyclo[3.1.0]hexane-3-carboxamide]"
5,2.12,"O=C(NCc1cc(-c2cnc(C(F)(F)F)nc2)ccc1F)[C@@H]1C[C@@H]2C[C@@H]2N1S(=O)(=O)c1ccc(F)cc1 [Example 16, (1S,3S,5S)-2-(4-fluorophenyl)sulfonyl-N-[[2-fluoro-5-[2-(trifluoromethyl)pyrimidin-5-yl]phenyl]methyl]-2-azabicyclo[3.1.0]hexane-3-carboxamide]"
6,1.37,"C[C@H]1CC[C@@H](C(=O)NCc2cc(-c3cnc(C(F)(F)F)nc3)ncc2F)N1S(=O)(=O)c1ccc(F)cc1 [Example 17, (2S,5S)-1-(4-fluorophenyl)sulfonyl-N-[[5-fluoro-2-[2-(trifluoromethyl)pyrimidin-5-yl]-4-pyridyl]methyl]-5-methyl-pyrrolidine-2-carboxamide]"
